Experimental data from paper PMC8037033, “Synthesis and Rational Design of New Appended 1,2,3-Triazole-uracil Ensembles as Promising Anti-Tumor Agents via In Silico VEGFR-2 Transferase Inhibition” (Molecules, 2021).

Assays:
[1] = tested on: HeLa tumor cells; assay: MTT cytotoxicity assay, HeLa; assay type: cell-based, human; conditions: 72 h
Method: (§1) The cell viability was measured by MTT colourimetric assay. The cell lines viz., HeLa (human cervical adenocarcinoma), HUH-7 (human hepatoma cancer cells) and NIH/3T3 (normal murine fibroblast cells) were supplemented with 10% fetal bovine serum and maintained in an environment of 5% CO2 at 37 °C temperature. Cell lines at a density of 2 × 10^3 cells/well were seeded onto 96 well plates for 16 h and maintained in DMEM culture media. Five different concentrations of synthesized ligands and 5-fluorouracil (except for normal cells) i.e., 0.1, 0.5, 1, 5 and 10 μM were treated against each cell line and incubated for 3 days at 37 °C [56]. Then, the solutions were discarded and an MTT reagent with a final concentration of 500 μg/mL was added to each well and plate and incubated for another 4–6 h. 200 μL of DMSO was added to solubilize purple precipitates (formazan product) and absorbance (optical density) was recorded at 570 nm on ELISA reader. IC50 values were calculated using dose-response data by applying the linear regression method. The experiments were done in triplicate for each concentration of ligand.

[2] = tested on: HUH-7 tumor cells; assay: MTT cytotoxicity assay, HUH-7; assay type: cell-based; conditions: Homo sapiens, 72 h
Method: as §1

[3] = tested on: NIH/3T3 normal cells; assay: MTT cytotoxicity assay, NIH/3T3 normal cells; assay type: cell-based, murine; conditions: Mus musculus, NIH3T3, 72 h
Method: as §1

| Compound | melting point [°C] | IC50 ([1]; Homo sapiens, HeLa) [µM] | IC50 [2] [µM] | IC50 [3] [µM] | IC50 [1] [µM] |
| --- | --- | --- | --- | --- | --- |
| O=c1[nH]cc(F)c(=O)[nH]1 [Compound 5-FU, 5-fluorouracil, reference compound] | – | 4.6 ± 0.2 | 30 ± 2.5 | – | – |
| Cn1c(=O)cc(Cl)n(Cc2cn(-c3ccc(F)cc3)nn2)c1=O [Compound 5b, 6-Chloro-1-((1-(4-fluorophenyl)-1H-1,2,3-triazol-4-yl)methyl)-3-methylpyrimidine-2,4(1H,3H)-dione] | 97 | > 10 | > 10 | > 10 | – |
| Cn1c(=O)cc(Cl)n(Cc2cn(-c3ccc(Cl)cc3)nn2)c1=O [Compound 5c, 6-Chloro-1-((1-(4-chlorophenyl)-1H-1,2,3-triazol-4-yl)methyl)-3-methylpyrimidine-2,4(1H,3H)-dione] | 100 | > 10 | > 10 | > 10 | – |
| Cn1c(=O)cc(Cl)n(Cc2cn(-c3ccc([N+](=O)[O-])cc3)nn2)c1=O [Compound 5d, 6-Chloro-3-methyl-1-((1-(4-nitrophenyl)-1H-1,2,3-triazol-4-yl)methyl)pyrimidine-2,4(1H,3H)-dione] | 110 to 112 | > 10 | > 10 | > 10 | – |
| Cc1ccc(Cn2cc(Cn3c(Cl)cc(=O)n(C)c3=O)nn2)cc1 [Compound 5h, 6-Chloro-3-methyl-1-((1-(4-methylbenzyl)-1H-1,2,3-triazol-4-yl)methyl)pyrimidine-2,4(1H,3H)-dione] | – | 4.5 ± 0.5 | 7.7 ± 0.3 | > 10 | – |
| Cc1cc(=O)oc2cc(OCCCCn3cc(Cn4c(Cl)cc(=O)n(C)c4=O)nn3)ccc12 [Compound 5m, 6-Chloro-3-methyl-1-((1-(4-((4-methyl-2-oxo-2H-chromen-7-yl)oxy)butyl)-1H-1,2,3-triazol-4-yl)methyl)pyrimidine-2,4(1H,3H)-dione] | 145 to 148 | > 10 | > 10 | > 10 | – |
| Cn1c(=O)cc(Cl)n(Cc2cn(CCCN3C(=O)c4cccc5cccc(c45)C3=O)nn2)c1=O [Compound 5n, 2-(3-(4-((6-Chloro-3-methyl-2,4-dioxo-3,4-dihydropyrimidin-1(2H)-yl)methyl)-1H-1,2,3-triazol-1-yl)propyl)-1H-benzo[de]isoquinoline-1,3(2H)-dione] | 96 to 98 | 9.6 ± 1.2 | > 10 | > 10 | – |
| CCCCCCn1cc(Cn2c(Cl)cc(=O)n(C)c2=O)nn1 [Compound 5o, 6-Chloro-1-((1-hexyl-1H-1,2,3-triazol-4-yl)methyl)-3-methylpyrimidine-2,4(1H,3H)-dione] | 100 to 102 | > 10 | > 10 | > 10 | – |
| CCCCCCCCn1cc(Cn2c(Cl)cc(=O)n(C)c2=O)nn1 [Compound 5p, 6-Chloro-3-methyl-1-((1-octyl-1H-1,2,3-triazol-4-yl)methyl)pyrimidine-2,4(1H,3H)-dione] | – | > 10 | > 10 | > 10 | – |
| Cn1c(=O)cc(Cl)n(Cc2cn(CCCCn3cc(Cn4c(Cl)cc(=O)n(C)c4=O)nn3)nn2)c1=O [Compound 5q, 1,1’-((Butane-1,4-diylbis(1H-1,2,3-triazole-1,4-diyl))bis(methylene))bis(6-chloro-3-methylpyrimidine-2,4(1H,3H)-dione)] | 115 to 118 | > 10 | > 10 | > 10 | – |
| Cn1c(=O)cc(Cl)n(Cc2cn(CCCCCn3cc(Cn4c(Cl)cc(=O)n(C)c4=O)nn3)nn2)c1=O [Compound 5r, 1,1’-((Pentane-1,5-diylbis(1H-1,2,3-triazole-1,4-diyl))bis(methylene))bis(6-chloro-3-methylpyrimidine-2,4(1H,3H)-dione)] | 114 to 115 | 9.6 ± 0.9 | > 10 | > 10 | – |

More lines, main results first:

| melting point [°C] | Compound | IC50 ([1]; Homo sapiens, HeLa) [µM] | IC50 [2] [µM] | IC50 [3] [µM] | IC50 [1] [µM] |
| --- | --- | --- | --- | --- | --- |
| 120 to 121 | Cn1c(=O)cc(Cl)n(Cc2cn(-c3ccccc3)nn2)c1=O [Compound 5a, 6-Chloro-3-methyl-1-((1-phenyl-1H-1,2,3-triazol-4-yl)methyl)pyrimidine-2,4(1H,3H)-dione] | 11.2 ± 0.1 | > 10 | > 10 | – |
| 145 to 148 | COc1ccc(-n2cc(Cn3c(Cl)cc(=O)n(C)c3=O)nn2)cc1 [Compound 5e, 6-Chloro-1-((1-(4-methoxyphenyl)-1H-1,2,3-triazol-4-yl)methyl)-3-methylpyrimidine-2,4-(1H,3H)-dione] | > 10 | > 10 | > 10 | – |
| 115 to 118 | Cn1c(=O)cc(Cl)n(Cc2cn(Cc3ccccc3)nn2)c1=O [Compound 5f, 1-((1-Benzyl-1H-1,2,3-triazol-4-yl)methyl)-6-chloro-3-methylpyrimidine-2,4(1H,3H)-dione] | > 10 | 10.8 ± 0.5 | > 10 | – |
| 138 to 140 | Cn1c(=O)cc(Cl)n(Cc2cn(Cc3ccc(Br)cc3)nn2)c1=O [Compound 5g, 1-((1-(4-Bromobenzyl)-1H-1,2,3-triazol-4-yl)methyl)-6-chloro-3-methylpyrimidine-2,4(1H,3H)-dione] | > 10 | > 10 | > 10 | – |
| 98 to 100 | COc1cccc(Cn2cc(Cn3c(Cl)cc(=O)n(C)c3=O)nn2)c1 [Compound 5i, 6-Chloro-1-((1-(3-methoxybenzyl)-1H-1,2,3-triazol-4-yl)methyl)-3-methylpyrimidine-2,4(1H,3H)-dione] | 9 | 9 ± 0.8 | > 10 | > 10 |
| 101 to 105 | Cn1c(=O)cc(Cl)n(Cc2cn(Cc3cccc(Oc4ccccc4)c3)nn2)c1=O [Compound 5j, 6-Chloro-3-methyl-1-((1-(3-phenoxybenzyl)-1H-1,2,3-triazol-4-yl)methyl)pyrimidine-2,4(1H,3H)-dione] | 10 ± 1.5 | > 10 | > 10 | – |
| 125 to 128 | Cn1c(=O)cc(Cl)n(Cc2cn(Cc3nc(C4=Cc5ccccc5OC4)no3)nn2)c1=O [Compound 5k, 1-((1-((3-(2H-Chromen-3-yl)-1,2,4-oxadiazol-5-yl)methyl)-1H-1,2,3-triazol-4-yl)methyl)-6-chloro-3-methylpyrimidine-2,4(1H,3H)-dione] | > 10 | > 10 | > 10 | – |
| 122 to 125 | COc1cccc2c1OCC(c1noc(Cn3cc(Cn4c(Cl)cc(=O)n(C)c4=O)nn3)n1)=C2 [Compound 5l, 6-Chloro-1-((1-((3-(8-methoxy-2H-chromen-3-yl)-1,2,4-oxadiazol-5-yl)methyl)-1H-1,2,3-triazol-4-yl)methyl)-3-methylpyrimidine-2,4(1H,3H)-dione] | > 10 | > 10 | > 10 | – |
